{"source": "PubChem BioAssay AID2060888", "about": "(Molecular Pharmacology Branch, DTP, NCI, 2025);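 note: viability read after seven days of drug exposure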;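 for viability, T/C: 100% = DMSO vehicle control viability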", "system": "695427-040-R-J1-PDC complex spheroid viability", "test": "Anticancer human tumor 695427-040-R-J1-PDC patient-derived colon adenocarcinoma cell line growth inhibition [RAS]", "conditions": "for IC50: curve of first compound; for viability, T/C: stronger effect = lower value", "in_short": "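Tumour cells grown as complex spheroids with HUVEC endothelial cells and mesenchymal stem cells, treated with RAS pathway inhibitor combinations. Each agent spans half-log steps from near clinical Cmax, or 10 microM where Cmax is unknown.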", "data": [{"smiles": "CC1(C)CCC(Nc2ncc(C(F)(F)F)c(-c3c[nH]c4c(P(C)(C)=O)c(C#N)ccc34)n2)CN1", "note": "(configuration not stated) + CCn1c(-c2cc(N3CCN(C)CC3)cnc2C(C)OC)c2c3cc(ccc31)-c1csc(n1)CC(NC(=O)C1CC1C)C(=O)N1CCCC(N1)C(=O)OCC(C)(C)C2", "values": [{"measurement": "IC50", "setting": "second compound 0.000949 µM", "value": "> 300", "unit": "nM"}, {"measurement": "IC50", "setting": "second compound 0.003 µM", "value": "> 300", "unit": "nM"}, {"measurement": "IC50", "setting": "second compound 0.00949 µM", "value": "> 300", "unit": "nM"}, {"measurement": "IC50", "setting": "second compound 0.03 µM", "value": "> 300", "unit": "nM"}, {"measurement": "IC50", "setting": "second compound 0.0949 µM", "value": "< 0.949", "unit": "nM"}, {"measurement": "IC50", "setting": "second compound 0.3 µM", "value": "< 0.949", "unit": "nM"}, {"measurement": "viability, T/C", "setting": "second compound 0.000949 µM, first compound 0.000949 µM", "value": 98, "unit": "%"}, {"measurement": "viability, T/C", "setting": "second compound 0.000949 µM, first compound 0.003 µM", "value": 101, "unit": "%"}, {"measurement": "viability, T/C", "setting": "second compound 0.000949 µM, first compound 0.00949 µM", "value": 84, "unit": "%"}, {"measurement": "viability, T/C", "setting": "second compound 0.000949 µM, first compound 0.03 µM", "value": 92.2, "unit": "%"}, {"measurement": "viability, T/C", "setting": "second compound 0.000949 µM, first compound 0.0949 µM", "value": 91.8, "unit": "%"}, {"measurement": "viability, T/C", "setting": "second compound 0.000949 µM, first compound 0.3 µM", "value": 77.6, "unit": "%"}, {"measurement": "viability, T/C", "setting": "second compound 0.003 µM, first compound 0.000949 µM", "value": 94.8, "unit": "%"}, {"measurement": "viability, T/C", "setting": "second compound 0.003 µM, first compound 0.003 µM", "value": 85.5, "unit": "%"}, {"measurement": "viability, T/C", "setting": "second compound 0.003 µM, first compound 0.00949 µM", "value": 77.9, "unit": "%"}, {"measurement": "viability, T/C", "setting": "second compound 0.003 µM, first compound 0.03 µM", "value": 77.2, "unit": "%"}, {"measurement": "viability, T/C", "setting": "second compound 0.003 µM, first compound 0.0949 µM", "value": 80.6, "unit": "%"}, {"measurement": "viability, T/C", "setting": "second compound 0.003 µM, first compound 0.3 µM", "value": 69.3, "unit": "%"}, {"measurement": "viability, T/C", "setting": "second compound 0.00949 µM, first compound 0.000949 µM", "value": 71.4, "unit": "%"}, {"measurement": "viability, T/C", "setting": "second compound 0.00949 µM, first compound 0.003 µM", "value": 65.6, "unit": "%"}, {"measurement": "viability, T/C", "setting": "second compound 0.00949 µM, first compound 0.00949 µM", "value": 74.2, "unit": "%"}, {"measurement": "viability, T/C", "setting": "second compound 0.00949 µM, first compound 0.03 µM", "value": 61.7, "unit": "%"}, {"measurement": "viability, T/C", "setting": "second compound 0.00949 µM, first compound 0.0949 µM", "value": 62.8, "unit": "%"}, {"measurement": "viability, T/C", "setting": "second compound 0.00949 µM, first compound 0.3 µM", "value": 63.6, "unit": "%"}, {"measurement": "viability, T/C", "setting": "second compound 0.03 µM, first compound 0.000949 µM", "value": 67.4, "unit": "%"}, {"measurement": "viability, T/C", "setting": "second compound 0.03 µM, first compound 0.003 µM", "value": 60.7, "unit": "%"}, {"measurement": "viability, T/C", "setting": "second compound 0.03 µM, first compound 0.00949 µM", "value": 61, "unit": "%"}, {"measurement": "viability, T/C", "setting": "second compound 0.03 µM, first compound 0.03 µM", "value": 58.5, "unit": "%"}, {"measurement": "viability, T/C", "setting": "second compound 0.03 µM, first compound 0.0949 µM", "value": 55.4, "unit": "%"}, {"measurement": "viability, T/C", "setting": "second compound 0.03 µM, first compound 0.3 µM", "value": 51.4, "unit": "%"}, {"measurement": "viability, T/C", "setting": "second compound 0.0949 µM, first compound 0.000949 µM", "value": 47.5, "unit": "%"}, {"measurement": "viability, T/C", "setting": "second compound 0.0949 µM, first compound 0.003 µM", "value": 44.3, "unit": "%"}, {"measurement": "viability, T/C", "setting": "second compound 0.0949 µM, first compound 0.00949 µM", "value": 47.9, "unit": "%"}, {"measurement": "viability, T/C", "setting": "second compound 0.0949 µM, first compound 0.03 µM", "value": 47.4, "unit": "%"}, {"measurement": "viability, T/C", "setting": "second compound 0.0949 µM, first compound 0.0949 µM", "value": 45.6, "unit": "%"}, {"measurement": "viability, T/C", "setting": "second compound 0.0949 µM, first compound 0.3 µM", "value": 40.3, "unit": "%"}, {"measurement": "viability, T/C", "setting": "second compound 0.3 µM, first compound 0.000949 µM", "value": 34.7, "unit": "%"}, {"measurement": "viability, T/C", "setting": "second compound 0.3 µM, first compound 0.003 µM", "value": 41.8, "unit": "%"}, {"measurement": "viability, T/C", "setting": "second compound 0.3 µM, first compound 0.00949 µM", "value": 31.7, "unit": "%"}, {"measurement": "viability, T/C", "setting": "second compound 0.3 µM, first compound 0.03 µM", "value": 36.4, "unit": "%"}, {"measurement": "viability, T/C", "setting": "second compound 0.3 µM, first compound 0.0949 µM", "value": 36.6, "unit": "%"}, {"measurement": "viability, T/C", "setting": "second compound 0.3 µM, first compound 0.3 µM", "value": 33.4, "unit": "%"}]}]}
